Reference: US12358892B2, “Metalloenzyme inhibitors for treating cancers, Alzheimer's disease, hemochromatosis, and other disorders” (Miralogx LLC, priority 2020, dated 2025)
Entries after “also recorded” stand apart in the source; their conditions may differ.

Experiments:
Type in all cases: cell-based, human
T cells = test: BioMAP proliferation readout, T cells; details: 100 μM, 33 μM
Description: (§1) The X-axis lists the quantitative protein-based biomarker readouts measured in each system. The Y-axis represents a log-transformed ratio of the biomarker readouts for the drug-treated sample (n=1) over vehicle controls (n≥6). The grey region around the Y-axis represents the 95% significance envelope generated from historical vehicle controls. Biomarker activities are annotated when two or more consecutive concentrations change in the same direction relative to vehicle controls, are outside of the significance envelope, and have at least one concentration with an effect size >20% (|log 10 ratio|>0.1). Biomarker key activities are described as modulated if these activities increase in some systems, but decrease in others. […] As summarized in Table 2 below, the compound was active with 35 annotated readouts. […]
(§2) Human primary cells in BioMAP® systems are used at early passage (passage 4 or earlier) to minimize adaptation to cell culture conditions and preserve physiological signaling responses. […] Test agents prepared in either DMSO (small molecules; final concentration ≤0.1%) or PBS (biologics) are added at the indicated concentrations 1-hr before stimulation, and remain in culture for 24-hrs or as otherwise indicated (48-hrs, MyoF system; 72-hrs, BT system (soluble readouts); 168-hrs, BT system (secreted IgG)). […]

B cells = test: BioMAP proliferation readout, B cells; details: 100 μM, 33 μM, 11 μM
Description: as §1, §2

[1] = tested on: HT-29 colorectal adenocarcinoma cell line; test: BioMAP Oncology CRC panel (StroHT29 and VascHT29 systems)
Description: The BioMAP® oncology system used in this Example is a coculture of primary human immune cells with primary tissue cells in the presence of the Colorectal Cancer (CRC) cells. In particular, The BioMAP® Oncology CRC panel models the interactions between the immune-stromal (fibroblasts) and immune-vascular (endothelial cells) environments in the context of colorectal cancer (HT-29 colorectal adenocarcinoma cell line). The interactions between tumor cells, stimulated immune cells (peripheral blood mononuclear cells [PBMC]), and the host stromal network (human neonatal dermal fibroblasts [HDFn]) are captured in the StroHT29 system. In parallel, the VascHT29 system captures the interactions between tumor cells, activated immune cells and the vascular tissue (human umbilical vein endothelial cells [HUVEC]). The biomarkers selected for the BioMAP® Colorectal Cancer (CRC) panel inform on activities related to inflammation, immune-function, tissue remodeling and metastasis in the context of a host tumor-microenvironment.
A signature BioMAP® profile that is reflective of the changes in protein biomarker readouts within an individual system is generated for each test agent. Biomarker readouts selected for therapeutic and biological relevance are predictive for disease outcomes or specific drug effects, and have been validated using agents with known clinical efficacy. Each readout is measured quantitatively by immune-based receptors, cytokines, chemokines, matrix molecules and enzymes. In total, the 41 biomarker readouts in the CRC panel capture the biological changes that occur within the physiological context of each particular BioMAP® system.
The BioMAP® CRC panel allows a focused in vitro evaluation of the impact of an agent in a model system that includes the hierarchical signaling networks that exist between interacting pathways and cells in a disease relevant setting. To represent the changes that are occurring in these complex systems, biomarker readouts with the ability to integrate and distinguish changes in different regulatory networks have been selected.
Data analysis of the results was performed as described in detail above in Example 3.1. Briefly, biomarker activities are annotated when at least one concentration of the test agent is outside of the significance envelope with an effect size >20% compared to the vehicle control (|log 10 ratio|>0.1) and a p-value <0.01. Cytotoxic conditions are noted when total protein levels decrease by more than 50% (log 10 ratio of SRB <−0.3). Biomarker key activities are described as modulated if these activities increase in some systems, but decrease in others.

[2] = 7.4 μM, 22 μM, 67 μM, Angiogenesis related activities
[3] = 7.4 μM, 22 μM, 67 μM, Immune-related activities
[4] = 7.4 μM, 22 μM, 67 μM, Inflammation related activities
[5] = 7.4 μM, 22 μM, 67 μM, Matrix remodeling activities
[6] = 7.4 μM, 22 μM, 67 μM, Tumor-related activities

C1=NC(c2cncc(C3CCC=N3)c2)CC1 (centres unmarked) [3,5-bis(3,4-dihydro-2H-pyrrol-2-yl)pyridine]
antiproliferative effect on T cells (T cells): antiproliferative
antiproliferative effect on B cells (B cells): antiproliferative
Decreased activity: PAI-I [1, 2]: decreased; also recorded: PAI-I
Decreased activity: tPA [1, 2]: decreased and tPA
Decreased activity: uPA [1, 2]: decreased and uPA
Increased activity: sVEGF [1, 2]: increased; also recorded: SVEGF
Decreased Activity: sIL-6 [1, 3]: decreased
Decreased activity: CD40 [1, 3]: decreased and CD40
Decreased activity: CD69 [1, 3]: decreased and CD69
Decreased activity: sGranB [1, 3]: decreased; also recorded: sGranB
Decreased activity: sIFNγ [1, 3]: decreased; also recorded: SIFNG
Decreased activity: sIL-2 [1, 3]: decreased; also recorded: sIL-2
Decreased activity: sIL-10 (Table 8) / sIL-1β [1, 3]: decreased
Decreased activity: sIL-17A [1, 3]: decreased
Decreased activity: IP-10 [1, 4]: decreased; also recorded: IP-10
Decreased activity: MCP-1 [1, 4]: decreased; also recorded: MCP-1
Decreased activity: MIG [1, 4]: decreased and MIG
Decreased activity: VCAM-1 [1, 4]: decreased; also recorded: VCAM-1
Decreased activity: Collagen I [1, 5]: decreased; also recorded: Col-I
Decreased activity: Collagen III [1, 5]: decreased and Col-
Decreased activity: Collagen IV [1, 5]: decreased; also recorded: Col-IV
Decreased activity: MMP9 [1, 5]: decreased and MMP9
Decreased activity: TIMP2 [1, 5]: decreased; also recorded: TIMP2
Decreased activity: CEACAM5 [1, 6]: decreased; also recorded: CEACAM5
Decreased activity: Keratin 20 [1, 6]: decreased
cytotoxicity ([1]; at 200 μM): cytotoxic
